According to patent US10226478B2, “Dosage regimen for sapacitabine and decitabine in combination for treating acute myeloid leukemia” (Cyclacel Limited, priority 2011, dated 2019):
Where two headings read alike, the source gives them in different places.

Assays:
HL60 cells [1] = assay: Annexin V staining (apoptosis, flow cytometry); settings: single agents, azacitidine 72 and 96 hours, CNDAC 48 or 72 hours
Description: Single agent treatments were also performed as controls. After incubation cells were centrifuged at 500 g for 5 min, washed twice in PBS and once in annexin buffer (10 mM Hepes pH 7.4, 2.5 mM CaCl2, and 140 mM NaCl). Cells were resuspended at 1×10^6/ml and 100 μl was transferred to a 5 ml tube prior to incubation for 10 min in the dark at room temperature with 5 μl of annexin V-FITC stain (Beckton Dickinson) and 10 μl of propidium iodide [50 mg/ml]. Annexin buffer (1 ml) was added and the cells were analysed by flow cytometry. Annexin V positive cells (apoptotic) were designated on the basis of green fluorescence and propidium iodide (dead) positive cells were designated on the basis of red fluorescence.

HL60 cells [2] = assay: 72 h single agent cytotoxicity, alamar blue assay; type: cell-based; settings: Homo sapiens
Description: (§1) In order to complete the combination studies, the cytotoxic effects of individual compounds were determined.
(§2) A dilution series for each drug was prepared in medium. Two hours after seeding, an equal volume of each compound was added at twice the desired concentration and incubated for 72 hours. All treatments were performed in triplicate. At the end of the incubation, a 20% stock of alamar blue (Roche, Lewes, UK) was prepared in media, and an equal volume was added to each well and incubated for three hours. Absorbance was read at 544-595 nm and data was analysed (Excel Fit v4.0) to determine the IC50 (concentration of compound that inhibited cell growth by 50%) for each compound.

MV4-11 cells = assay: 72 h single agent cytotoxicity, alamar blue assay; type: cell-based; settings: Homo sapiens
Description: as §1, §2

[3] = tested on: cell line that is resistant to cytarabine; settings: cited from earlier work

Structure (SMILES)	annexin V, proportion of apoptotic cells (HL60 cells [1])	IC50 (HL60 cells [2]; HL-60, HL60 cells, 72 hour, read-out: 1×IC50)	IC50 (HL60 cells [2]; HL-60 cells, read-out: IC50)	IC50 (MV4-11 cells)	IC50 (HL60 cells [2]; HL-60, HL60 cells, 72 hour, half of the IC50, read-out: 0.5×IC50)	IC50 (HL60 cells [2]; HL-60 cells, half of the IC50, read-out: 0.5×IC50)	IC50 ([3]; after 5-azacitidine (upregulation of dCK))	IC50 ([3]; before 5-azacitidine)
N#C[C@H]1[C@H](O)[C@@H](CO)O[C@H]1n1ccc(N)nc1=O [CNDAC, 1-(2-C-Cyano-2-deoxy-β-D-arabino-pentafuranosyl)-cytosine]	little effect	133 nM	130 nM	460 nM				
Nc1ncn([C@@H]2O[C@H](CO)[C@@H](O)[C@H]2O)c(=O)n1 [azacitidine, 4-amino-1-β-D-ribofuranosyl-s-triazin-2(1H)-one]	small increase in the proportion of apoptotic cells				128 nM	130 nM		
Nc1ccn([C@@H]2O[C@H](CO)[C@@H](O)[C@@H]2O)c(=O)n1 [cytarabine]							0.55 µM	12.5 µM
